Experimental data reported in EP4670722A1, “PROPHYLACTIC OR AMELIORATING AGENT FOR CELL AGING” (Kyowa Pharma Chemical Co., Ltd., priority 2023, dated 2024).

Key:
laminin = assay: Laminin secretion amount (ELISA) of tunicamycin-treated dermal fibroblasts; type: cell-based, Human; conditions: NB1RGB PDL of 30 or less, tunicamycin 0.3 µg/mL, 50 µg/mL to 200 µg/mL, 24 hours; recovery increased as content increased; Fig. 8
Description: Human normal dermal fibroblasts (NB1RGB) with a PDL of 30 or less were cultured using DMEM containing 10% FBS. The cultured cells were collected by trypsin treatment. The collected cells were seeded in a 24-well plate, and when they reached 100% confluence, tunicamycin at 0.3 µg/mL was added, and the culture supernatant was collected after 24 hours. A group was also prepared in which FBS-free DMEM medium containing the test sample (2'-fucosyllactose) at 50 µg/mL, 100 µg/mL, or 200 µg/mL was added simultaneously with tunicamycin, and the culture supernatant was collected after 24 hours. The culture supernatant was centrifuged, and the resulting supernatant was used as a sample. […] This total cell protein concentration was measured by the Bradford assay.
Human normal dermal fibroblasts with a PDL of 30 or less were cultured in the same manner as in Example 7-1, except that tunicamycin and the test sample were not added, and the culture supernatant was collected. […] This total cell protein concentration was measured by the Bradford assay.
An Enzyme-Linked Immunosorbent Assay (ELISA) method was performed using an antibody against laminin to measure the amount of laminin in the samples. […] After stopping the reaction, the absorbance at a measurement wavelength of 450 nm was measured using a microplate reader. […]

GLS1 [1] = assay: GLS1 expression analysis (ELISA) in BV2; type: cell-based; conditions: mouse microglial cells (BV2), at least 200 µg/mL or more, 24 hours; effect increased from 200 to 1000 µg/mL; Fig. 12
Description: Mouse microglial cells (BV2) were cultured in glutamine-containing DMEM. The cultured cells were collected by trypsin treatment. The collected cells were seeded in a 6-well plate at a cell density of 4 x 10^5 cells/well and cultured for 24 hours in a 37°C, 5% CO2 incubator. After culturing, glutamine-free DMEM containing the test sample (2'-FL and lactose) at 50 µg/mL, 200 µg/mL, or 1000 µg/mL was added, and cultured for 24 hours in a 37°C, 5% CO2 incubator. The culture supernatant was removed, the cells were washed twice with PBS, and 0.20 mL of RIPA buffer was added to extract total protein. Protein in each protein extract was quantified by the Bradford assay.
(§1) Protein extracts were collected in the same manner as in [Example 10-1 B. Human gastric undifferentiated carcinoma cells (KKLS)], [Example 10-1 C. Mouse microglial cells (BV2)], [Example 10-1 D. Human gingival fibroblasts (Gin-1)], and [Example 10-1 E. Human umbilical vein endothelial cells (HUVEC)], respectively, except that a medium same as the above-mentioned medium but not containing the test sample was used instead of the medium containing the test sample, and protein in each protein extract was quantified by the Bradford assay.
(§2) An ELISA method was performed using an antibody against GLS1 to measure the amount of GLS1 in the samples. […]

GLS1 [2] = assay: GLS1 expression analysis (ELISA) in Gin-1; type: cell-based; conditions: human gingival fibroblasts (Gin-1), 50 µg/mL to 1000 µg/mL, 24 hours; effect increased as content increased; Fig. 12
Description: Human gingival fibroblasts (Gin-1) were cultured in DMEM containing 10% FBS. The cultured cells were collected by trypsin treatment. Cells in a state where GLS1 was expressed without addition of the test sample were used for the test. Cells collected by trypsin treatment were seeded in a 6-well plate, and when they reached 80% confluence, DMEM containing the test sample (2'-FL and lactose) at 50 µg/mL, 200 µg/mL, or 1000 µg/mL was added, and cultured for 24 hours in a 37°C, 5% CO2 incubator. The culture supernatant was removed, the cells were washed twice with PBS, and 0.20 mL of RIPA buffer was added to extract total protein. Protein in each protein extract was quantified by the Bradford assay.
as §1, §2

`C[C@@H]1O[C@@H](O[C@H]2[C@H](O[C@H]3[C@H](O)[C@@H](O)C(O)O[C@@H]3CO)O[C@H](CO)[C@H](O)[C@@H]2O)[C@@H](O)[C@H](O)[C@@H]1O` (stereo partly drawn) [2'-FL, 2'-fucosyllactose] was tested, and the laminin secretion (laminin) was “restored laminin secretion”, the GLS1 expression (GLS1 [1]) was “suppressed GLS1 expression” and the GLS1 expression (GLS1 [2]) was “suppressed GLS1 expression”.
